# Results published in the RepoRT retention time repository.
# Where a name gives a salt, the structure may show the parent alone.
# Test: RP, Thermo Scientific Hypersil GOLD, 1.9 µm, 40 °C, 0.4 mL/min; A: water + 0.1% formic acid, pH 3; B: acetonitrile + 0.1% formic acid, pH 3; gradient (min/%B) 0/0 1/0 11/100 13/100 14/0 16/0
# Settings: stereoisomer not certain
row,Compound,LC retention time
1,NC(CS(=O)O)C(=O)O (stereo unspecified) [3-SULFINOALANINE],0.67 min
2,CC(=O)OCC(=O)O [Acetoxyacetic acid],1.93 min
3,O=C(O)c1cccc(O)c1O [2-3-DIHYDROXYBENZOATE],5.01 min
4,NCCCCN=C(N)N [AGMATINE SULFATE],0.54 min
5,NCCc1c[nH]c2ccccc12 [TRYPTAMINE],4.7 min
6,Nc1cc([O-])cc(C(=O)O)c1 [3-AMINO-5-HYDROXYBENZOATE],0.81 min
7,CC(CN)C(=O)O (stereo unspecified) [AMINOISOBUTANOATE],0.67 min
8,CC(CCC(=O)NCCS(=O)(=O)O)C1CCC2C3C(O)CC4CC(O)CCC4(C)C3CC(O)C12C (stereo unspecified) [taurocholic acid  sodium salt hydrate],7.13 min
9,O=C(O)c1cc(=O)c2cccc(O)c2[nH]1 [XANTHURENATE],4.45 min
10,CC(C)C(C(=O)O)C(O)C(=O)O (stereo unspecified) [3-isopropylmalic acid],4.68 min
11,C[N+](C)(C)CCOP(=O)(O)OP(=O)([O-])OCC1OC(n2ccc(N)nc2=O)C(O)C1O (stereo unspecified) [CITICOLINE],0.64 min
12,CC12CCC3C(CC=C4CC(O)CCC43C)C1CCC2=O (stereo unspecified) [3-b-Hydroxyandrost-5-en-17-one (Dehydroepiandrosterone)],4.86 min
13,OCC(O)CO [GLYCEROL],0.68 min
14,NC(=O)C=CC(=O)O [MALEAMATE],0.82 min
15,Cc1cc(=O)oc(C)c1C(=O)O [Isodehydracetic acid],4.13 min
16,CC(CC(=O)O)C(=O)O (stereo unspecified) [Methyl-succinic acid],3.66 min
17,NCC[Se][Se]CCN [SELENOCYSTAMINE],0.56 min
18,"CN1C2CC(OC(=O)C(CO)c3ccccc3)CC1C1OC12 (single isomer, unassigned; (-)) [(-)-Scopolamine hydrochloride]",4.91 min
19,Cc1ccncc1 [4-Methylpyridine (4-Picoline)],0.87 min
20,COC1=C(OC)C(=O)C(CC=C(C)CCC=C(C)C)=C(C)C1=O [coenzyme Q2],11 min
21,CC1C(=O)Nc2ccccc21 (stereo unspecified) [3-METHYL-2-OXINDOLE],6.25 min
22,CC(O)C(O)C1=Nc2c(nc(N)[nH]c2=O)NC1 [7-8-Dihydro-L-biopterin],0.82 min
23,OCC1OC(OCC2OC(OC3(CO)OC(CO)C(O)C3O)C(O)C(O)C2O)C(O)C(O)C1O (stereo unspecified) [RAFFINOSE],0.68 min
24,CC(CCC(=O)O)C1CCC2C3CCC4CC(O)CCC4(C)C3CC(=O)C12C (stereo unspecified) [5b-cholanic acid-3a-OL-12-ONE],8.76 min
25,CC12CCC(=O)C=C1CCC1C2C(=O)CC2(C)C1CCC2(O)C(=O)CO (stereo unspecified) [CORTISONE],6.81 min
26,NC(=O)NCCC(=O)O [UREIDOPROPIONATE],0.82 min
